Source: ChEMBL document CHEMBL2074547, “Efflux of sphingoid bases by P-glycoprotein in human intestinal Caco-2 cells” (Biosci Biotechnol Biochem, 2004)

The compounds below were run against ATP-dependent translocase ABCB1 (Homo sapiens, UniProt P08183) (assay: TP_TRANSPORTER: cell accumulation (digoxin-sensitive) in Caco-2 cells).
Sequence of ATP-dependent translocase ABCB1 (P08183 whole entry): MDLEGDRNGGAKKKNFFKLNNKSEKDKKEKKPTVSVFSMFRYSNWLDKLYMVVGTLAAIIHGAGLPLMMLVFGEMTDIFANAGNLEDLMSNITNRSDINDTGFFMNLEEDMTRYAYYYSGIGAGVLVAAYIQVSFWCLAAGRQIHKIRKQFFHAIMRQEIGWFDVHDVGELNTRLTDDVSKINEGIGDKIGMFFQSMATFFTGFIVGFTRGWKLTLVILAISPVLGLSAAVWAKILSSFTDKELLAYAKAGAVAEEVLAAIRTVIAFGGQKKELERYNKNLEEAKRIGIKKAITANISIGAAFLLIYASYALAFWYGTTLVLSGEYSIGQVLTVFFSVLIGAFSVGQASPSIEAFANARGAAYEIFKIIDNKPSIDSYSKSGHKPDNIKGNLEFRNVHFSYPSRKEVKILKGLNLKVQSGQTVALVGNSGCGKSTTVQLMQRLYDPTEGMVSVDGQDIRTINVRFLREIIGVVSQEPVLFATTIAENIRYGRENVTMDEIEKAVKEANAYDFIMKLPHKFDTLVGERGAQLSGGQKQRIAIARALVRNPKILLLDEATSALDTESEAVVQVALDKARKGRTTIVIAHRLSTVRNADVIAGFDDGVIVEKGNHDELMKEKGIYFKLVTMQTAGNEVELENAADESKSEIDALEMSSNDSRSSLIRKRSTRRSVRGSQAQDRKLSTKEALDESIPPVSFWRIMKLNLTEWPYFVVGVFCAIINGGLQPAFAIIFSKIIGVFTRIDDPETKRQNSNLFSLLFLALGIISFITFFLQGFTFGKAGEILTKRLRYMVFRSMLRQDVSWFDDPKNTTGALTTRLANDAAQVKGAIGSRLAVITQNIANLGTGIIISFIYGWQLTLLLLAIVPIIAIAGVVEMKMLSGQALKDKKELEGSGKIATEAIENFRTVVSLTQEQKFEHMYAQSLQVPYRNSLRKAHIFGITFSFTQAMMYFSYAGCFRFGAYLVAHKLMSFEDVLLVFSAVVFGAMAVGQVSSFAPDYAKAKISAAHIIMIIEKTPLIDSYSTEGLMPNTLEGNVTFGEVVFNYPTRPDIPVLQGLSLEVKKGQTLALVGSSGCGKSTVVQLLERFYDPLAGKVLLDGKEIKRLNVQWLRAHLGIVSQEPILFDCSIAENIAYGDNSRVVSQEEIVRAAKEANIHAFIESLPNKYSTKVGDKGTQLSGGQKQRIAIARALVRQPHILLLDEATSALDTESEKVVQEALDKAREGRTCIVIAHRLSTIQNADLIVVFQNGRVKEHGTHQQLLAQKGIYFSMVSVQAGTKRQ
Assay type: functional, cell-based
For `CCCCCCCCC/C=C/CCCCC(O)C(N)CO` (configuration not stated), the Activity was “substrate [+]”. For `CCCCCCCCCCCCC/C=C/[C@@H](O)[C@@H](N)CO` [SPHINGOSINE], the Activity was “is not a substrate [-]”. With `CCCCCCCCC/C=C/CC/C=C/C(O)C(N)CO` (configuration not stated) the Activity was “substrate [+]”. For `CCCCCCCCC/C=C\CC/C=C/C(O)C(N)CO` (configuration not stated), the Activity was “substrate [+]”. In the case of `CCCCCCCCC/C(C)=C/CC/C=C/C(O)C(N)CO` (configuration not stated), the Activity was “substrate [+]”. `CCCCCCCCC/C=C\CCCCC(O)C(N)CO` (configuration not stated) was tested, and the Activity was “substrate [+]”. `CCCCCCCCCCCCCCC[C@@H](O)[C@@H](N)CO` [DIHYDROSPINGOSINE] was tested, and the Activity was “substrate [+]”.
